Results from patent US3980794A, “Method for promoting growth of poultry with 3-(5-nitro-2-imidazolyl)pyrazoles” (Eli Lilly and Company, priority 1975, dated 1976).
Values after ≈ are worked out from the molar mass of the structure shown. Where two headings read alike, the source gives them in different places.

Tests used:
[1] = system: Clostridium innocuum 1373; assay: Susceptibility of anaerobic bacteria, agar dilution; format: cell-based; conditions: read-out: 24 Hr. Minimum Inhibitory Concentration
[2] = system: Propionibacterium acnes 79; assay: as above; format: cell-based; conditions: read-out: 24 Hr. Minimum Inhibitory Concentration
[3] = system: Bacteroides fragilis sp. fragilis 1936B; assay: as above; format: cell-based; conditions: 24 h, read-out: 24 Hr. Minimum Inhibitory Concentration
[4] = system: Bacteroides fragilis sp. fragilis 1877; assay: as above; format: cell-based; conditions: 24 h, read-out: 24 Hr. Minimum Inhibitory Concentration
[5] = system: Peptococcus anaerobius 1428; assay: as above; format: cell-based; conditions: 24 h, read-out: 24 Hr. Minimum Inhibitory Concentration
[6] = system: Eubacterium aerofaciens 1235; assay: as above; format: cell-based; conditions: read-out: 24 Hr. Minimum Inhibitory Concentration
[7] = system: Fusobacterium symbiosum 1470; assay: as above; format: cell-based; conditions: read-out: 24 Hr. Minimum Inhibitory Concentration
[8] = system: Clostridium perfringens 81; assay: microbe, parasite or virus in culture; format: cell-based; conditions: Clostridium perfringens, 81, 24 h, read-out: 24 Hr. Minimum Inhibitory Concentration
[9] = system: Veillonella alcalescens 1; assay: Susceptibility of anaerobic bacteria, agar dilution; format: cell-based; conditions: read-out: 24 Hr. Minimum Inhibitory Concentration
[10] = system: Clostridium ramosum 1313; assay: as above; format: cell-based; conditions: read-out: 24 Hr. Minimum Inhibitory Concentration
[11] = system: Bacteroides fragilis sp. vulgatus 1211; assay: as above; format: cell-based; conditions: 24 h, read-out: 24 Hr. Minimum Inhibitory Concentration
[12] = system: Peptostreptococcus intermedius 1264; assay: as above; format: cell-based; conditions: 24 h; Peptostreptococcus intermedius 1264; read-out: 24 Hr. Minimum Inhibitory Concentration
[13] = system: Clostridium septicum bovine; assay: as above; format: cell-based; conditions: 24 h, read-out: 24 Hr. Minimum Inhibitory Concentration
[14] = system: Clostridium septicum 1128; assay: as above; format: cell-based; conditions: 24 h, read-out: 24 Hr. Minimum Inhibitory Concentration
[15] = system: Actinomyces bovis 13684; assay: as above; format: cell-based; conditions: read-out: 24 Hr. Minimum Inhibitory Concentration
[16] = system: Salmonella typhimurium; assay: Control of infections caused by Salmonella typhimurium in chickens, subcutaneous (Experiment 2); format: in vivo; conditions: Salmonella enterica, sc, 144 h, 6 days, read-out: Survival Ratio (converted); for responders at 3.75 mg/kg: 3.75 mg./kg. subcutaneous; for responders at 7.5 mg/kg: 7.5 mg./kg. subcutaneous; for responders at 15 mg/kg: 15 mg./kg. subcutaneous; for responders at 30 mg/kg: 30 mg./kg. subcutaneous; for responders at 60 mg/kg: 60 mg./kg. subcutaneous
[17] = [Clostridium] innocuum, 1373, 24 h
[18] = Collinsella aerofaciens, 1235, 24 h
[19] = Thomasclavelia ramosa, 1313, 24 h
[20] = 24 h, Clostridium innocuum 1373
[21] = Cutibacterium acnes, 24 h, Propionibacterium acnes 79
[22] = Bacteroides fragilis sp. fragilis 1936B
[23] = Bacteroides fragilis sp. fragilis 1877
[24] = Collinsella aerofaciens, 24 h, Eubacterium aerofaciens 1235
[25] = 24 h, Fusobacterium symbiosum 1470
[26] = Veillonella parvula, 24 h, Veillonella alcalescens 1
[27] = Thomasclavelia ramosa, 24 h, Clostridium ramosum 1313
[28] = Bacteroides fragilis sp. vulgatus 1211

Row | Structure (SMILES) | MIC [1, 17] | MIC ([2]; Cutibacterium acnes, 79, 24 h) | MIC ([3]; Bacteroides fragilis) | MIC ([4]; Bacteroides fragilis) | MIC [5] | MIC [6, 18] | MIC ([7]; Fusobacterium, 1470, 24 h) | MIC [8] | MIC ([9]; Veillonella parvula, 1, 24 h) | MIC [10, 19] | MIC ([11]; Bacteroides fragilis) | MIC [12] | MIC [13] | MIC [14] | MIC ([15]; Actinomyces bovis, 13684, 24 h) | responders at 3.75 mg/kg [16] | responders at 7.5 mg/kg [16] | responders at 15 mg/kg [16] | responders at 30 mg/kg [16] | responders at 60 mg/kg [16] | further results
1 | Cn1nc(-c2ncc([N+](=O)[O-])n2C)c(C#N)c1N [Compound 1, 5-Amino-1-methyl-3-(1-methyl-5-nitro-2-imidazolyl)pyrazole-4-carbonitrile] | < 0.125 µg/mL | < 0.125 µg/mL | < 0.125 µg/mL | < 0.125 µg/mL | < 0.125 µg/mL | < 0.125 µg/mL | < 0.125 µg/mL | < 0.125 µg/mL | < 0.125 µg/mL | < 0.125 µg/mL | < 0.125 µg/mL | 0.5 µg/mL (≈ 2.02 µM) | < 0.125 µg/mL | < 0.125 µg/mL | < 0.125 µg/mL | 44% | 62.9% | 72% | 54% | 67.1% | –
2 | Cn1nc(-c2ncc([N+](=O)[O-])n2C)c(C(N)=O)c1N [Compound 2, 5-Amino-1-methyl-3-(1-methyl-5-nitro-2-imidazolyl)pyrazole-4-carboxamide] | < 0.125 µg/mL | < 0.125 µg/mL | < 0.125 µg/mL | < 0.125 µg/mL | < 0.125 µg/mL | < 0.125 µg/mL | < 0.125 µg/mL | < 0.125 µg/mL | < 0.125 µg/mL | < 0.125 µg/mL | < 0.125 µg/mL | 1 µg/mL (≈ 3.77 µM) | < 0.125 µg/mL | < 0.125 µg/mL | < 0.125 µg/mL | – | 0% | 40% | 44% | 46.7% | –
3 | COC=Nc1c(C#N)c(-c2ncc([N+](=O)[O-])n2C)nn1C [Compound 6, Methyl N-[4-cyano-1-methyl-3-(1-methyl-5-nitro-2-imidazolyl)pyrazol-5-yl]formimidate] | < 0.125 µg/mL | < 0.125 µg/mL | < 0.125 µg/mL | < 0.125 µg/mL | < 0.125 µg/mL | < 0.125 µg/mL | < 0.125 µg/mL | < 0.125 µg/mL | < 0.125 µg/mL | < 0.125 µg/mL | < 0.125 µg/mL | 1 µg/mL (≈ 3.46 µM) | < 0.125 µg/mL | < 0.125 µg/mL | < 0.125 µg/mL | 80% | 90% | 50% | 50% | 46.7% | –
4 | CCCCOC=Nc1c(C#N)c(-c2ncc([N+](=O)[O-])n2C)nn1C [Compound 7, Butyl N-[4-Cyano-1-methyl-3-(1-methyl-5-nitro-2-imidazolyl)-pyrazol-5-yl]formimidate] | < 0.125 µg/mL | < 0.125 µg/mL | < 0.125 µg/mL | < 0.125 µg/mL | < 0.125 µg/mL | < 0.125 µg/mL | < 0.125 µg/mL | < 0.125 µg/mL | < 0.125 µg/mL | < 0.125 µg/mL | < 0.125 µg/mL | 2 µg/mL (≈ 6.04 µM) | < 0.125 µg/mL | < 0.125 µg/mL | < 0.125 µg/mL | – | 0% | 55% | 40% | 55% | –
5 | CC(=O)Nc1c(C(=O)O)c(-c2ncc([N+](=O)[O-])n2C)nn1C [Compound 12, 5-acetamido-1-methyl-3-(1-methyl-5-nitro-2-imidazolyl)pyrazole-4-carboxylic acid] | – | – | – | – | – | – | – | 8 µg/mL (≈ 26 µM) | – | – | – | 32 µg/mL (≈ 104 µM) | 8 µg/mL (≈ 26 µM) | 4 µg/mL (≈ 13 µM) | – | – | – | – | – | – | MIC [1, 20]: 8 µg/mL (≈ 26 µM); MIC [2, 21]: 1 µg/mL (≈ 3.24 µM); MIC [3, 22]: 16 µg/mL (≈ 51.9 µM); MIC [4, 23]: 4 µg/mL (≈ 13 µM); MIC ([5]; Peptococcus anaerobius 1428): 8 µg/mL (≈ 26 µM); MIC [6, 24]: 1 µg/mL (≈ 3.24 µM); MIC [7, 25]: < 0.125 µg/mL; MIC [9, 26]: 0.5 µg/mL (≈ 1.62 µM); MIC [10, 27]: 4 µg/mL (≈ 13 µM); MIC [11, 28]: 2 µg/mL (≈ 6.49 µM); MIC ([15]; 24 h, Actinomyces bovis 13684): 0.5 µg/mL (≈ 1.62 µM)
6 | C=CCOC=Nc1c(C#N)c(-c2ncc([N+](=O)[O-])n2C)nn1C [Compound 13A, Allyl N-[4-cyano-1-methyl-3-(1-methyl-5-nitro-2-imidazolyl)pyrazol-5-yl]formimidate] | – | – | – | – | – | – | – | 1 µg/mL (≈ 3.17 µM) | – | – | – | 16 µg/mL (≈ 50.7 µM) | 0.5 µg/mL (≈ 1.59 µM) | 0.5 µg/mL (≈ 1.59 µM) | – | 40% | 46.7% | 53.3% | 33.3% | 50% | MIC [1, 20]: 1 µg/mL (≈ 3.17 µM); MIC [2, 21]: < 0.125 µg/mL; MIC [3, 22]: 2 µg/mL (≈ 6.34 µM); MIC [4, 23]: 0.5 µg/mL (≈ 1.59 µM); MIC ([5]; Peptococcus anaerobius 1428): 2 µg/mL (≈ 6.34 µM); MIC [6, 24]: < 0.125 µg/mL; MIC [7, 25]: < 0.125 µg/mL; MIC [9, 26]: < 0.125 µg/mL; MIC [10, 27]: 4 µg/mL (≈ 12.7 µM); MIC [11, 28]: < 0.125 µg/mL; MIC ([15]; 24 h, Actinomyces bovis 13684): 0.5 µg/mL (≈ 1.59 µM)
7 | CCCCC(CC)COC=Nc1c(C#N)c(-c2ncc([N+](=O)[O-])n2C)nn1C (centres unmarked) [Compound 13D, 2-Ethylhexyl N-[4-cyano-1-methyl-3-(1-methyl-5-nitro-2-imidazolyl)pyrazol-5-yl]formimidate] | – | – | – | – | – | – | – | 1 µg/mL (≈ 2.58 µM) | – | – | – | 16 µg/mL (≈ 41.3 µM) | 4 µg/mL (≈ 10.3 µM) | 2 µg/mL (≈ 5.16 µM) | – | – | – | 10% | 10% | 33.3% | MIC [1, 20]: 1 µg/mL (≈ 2.58 µM); MIC [2, 21]: 2 µg/mL (≈ 5.16 µM); MIC [3, 22]: 0.5 µg/mL (≈ 1.29 µM); MIC [4, 23]: 2 µg/mL (≈ 5.16 µM); MIC ([5]; Peptococcus anaerobius 1428): 2 µg/mL (≈ 5.16 µM); MIC [6, 24]: 2 µg/mL (≈ 5.16 µM); MIC [7, 25]: 1 µg/mL (≈ 2.58 µM); MIC [9, 26]: 0.25 µg/mL (≈ 0.645 µM); MIC [10, 27]: 1 µg/mL (≈ 2.58 µM); MIC [11, 28]: 1 µg/mL (≈ 2.58 µM); MIC ([15]; 24 h, Actinomyces bovis 13684): 1 µg/mL (≈ 2.58 µM)
